Test systems include T47D; NCI-H522; HOP-62; M14; SF-268; NCI/ADR-RES; SF-295; BT-549; OVCAR-8; KM12; RXF 393; K562; ACHN; OVCAR-3; MDA-MB-231; A498; MDA-N; SK-MEL-5; SK-MEL-2.
Common to all, as to test: growth of human tumour cells (NCI), 48 h

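Test compounds were applied to cells in 96-well plates for 48 hours at 5 doses. GI50 marks 50% less growth.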 Active and inactive are the calls of the source. Rule as the data show it: active = GI50 up to about 1.1 µM and inactive = higher.

As for `c1cc(CSc2ncnc3[nH]cnc23)ccn1`, the GI50 was 76.6 µM (inactive) in the experiment with T47D; 42.2 µM (inactive) in the experiment on NCI-H522; 91.8 µM (inactive) in the experiment on HOP-62; 34.8 µM (inactive) with M14; 92.9 µM (inactive) with SF-268; > 100 µM (inactive) in the experiment on NCI/ADR-RES. Moreover, the GI50 with SF-295 was > 100 µM (inactive); in the experiment with BT-549 it was 73.8 µM (inactive); in the experiment with OVCAR-8 it was 94 µM (inactive); in the experiment on KM12, > 100 µM (inactive); in the experiment with RXF 393 it was > 100 µM (inactive); in the experiment on K562, 27.8 µM (inactive). The GI50 is > 100 µM (inactive) in the experiment with ACHN; 63 µM (inactive) in the experiment on OVCAR-3; > 100 µM (inactive) in the experiment with MDA-MB-231; > 100 µM (inactive) with A498; 42.9 µM (inactive) in the experiment with MDA-N; > 100 µM (inactive) with SK-MEL-5. In the experiment with SK-MEL-2, the GI50 is 80.5 µM (inactive).

On to `CC1OC(O[C@H]2C3C=CO[C@@H](OC4OC(CO)C(O)C(O)C4O)C3[C@@]3(COC(=O)/C=C/c4ccccc4)O[C@@H]23)C(O)C(O)C1O` (some centres not stated), for which the GI50 in the experiment with T47D, with NCI-H522, in the experiment with HOP-62, in the experiment with M14, in the experiment with SF-268 and in the experiment with NCI/ADR-RES was > 100 µM (inactive) in each case. Also, the GI50 with SF-295, with BT-549, in the experiment with OVCAR-8, in the experiment with KM12, with RXF 393 and with K562 was > 100 µM (inactive) each time. The GI50 with ACHN, with OVCAR-3, with MDA-MB-231, in the experiment on A498, in the experiment with MDA-N and with SK-MEL-5 was > 100 µM (inactive) in each case. Also, the GI50 in the experiment with SK-MEL-2 was > 100 µM (inactive).

For `CC(C)(C)OC(=O)N1CC(COS(C)(=O)=O)c2ccc(O)cc21` (configuration not stated), the GI50 in the experiment with T47D was 3.05 µM (inactive); with NCI-H522 it was 1.05 µM (active); in the experiment with HOP-62 it was 3.3 µM (inactive); in the experiment with M14 it was 1.72 µM (inactive); with SF-268, 1.72 µM (inactive); with NCI/ADR-RES, 1.74 µM (inactive). The GI50 with SF-295 was 2.91 µM (inactive); in the experiment with BT-549 it was 1.52 µM (inactive); with OVCAR-8 it was 1.85 µM (inactive); in the experiment on KM12, 2.46 µM (inactive); with RXF 393 it was 0.288 µM (active); in the experiment on K562, 2.3 µM (inactive). Moreover, the GI50 in the experiment with ACHN was 0.684 µM (active); with OVCAR-3, 2.05 µM (inactive); in the experiment on MDA-MB-231, 2.77 µM (inactive); in the experiment on A498 it was 2.18 µM (inactive); in the experiment on MDA-N, 2.08 µM (inactive); in the experiment on SK-MEL-5, 1.51 µM (inactive). The GI50 with SK-MEL-2 was 1.51 µM (inactive).

Regarding `O=C1C(Cl)=C(Cl)C(Cl)(Cl)C(Cl)C1(Cl)Cl` (configuration not stated), the GI50 is 21 µM (inactive) in the experiment with T47D; 13.7 µM (inactive) in the experiment with NCI-H522; 23.4 µM (inactive) with HOP-62; 25.6 µM (inactive) in the experiment with M14; 19.6 µM (inactive) in the experiment on SF-268; 25.3 µM (inactive) in the experiment with NCI/ADR-RES. Further, the GI50 in the experiment with SF-295 was 21.2 µM (inactive); in the experiment with BT-549, 19.7 µM (inactive); in the experiment on OVCAR-8, 32.2 µM (inactive); with KM12, 20.1 µM (inactive); with RXF 393 it was 20 µM (inactive); with K562, 24.6 µM (inactive). Besides, the GI50 in the experiment on ACHN was 29.8 µM (inactive); in the experiment with OVCAR-3, 17.7 µM (inactive); in the experiment with MDA-MB-231 it was 20 µM (inactive); with A498, 15.2 µM (inactive); in the experiment on MDA-N, 23.7 µM (inactive); with SK-MEL-5, 13.7 µM (inactive). Moreover, in the experiment on SK-MEL-2, the GI50 was 15.8 µM (inactive).

With `CN1C(=O)C(CC(=O)O)NC1=S` (configuration not stated), the GI50 is 51.4 µM (inactive) in the experiment on T47D; > 100 µM (inactive) with NCI-H522; > 100 µM (inactive) in the experiment with HOP-62; > 100 µM (inactive) in the experiment with M14; > 100 µM (inactive) in the experiment with SF-268; > 100 µM (inactive) in the experiment on NCI/ADR-RES. Moreover, the GI50 with SF-295, in the experiment with BT-549, in the experiment with OVCAR-8, with KM12, with RXF 393 and with K562 was > 100 µM (inactive) throughout. For the same compound, the GI50 in the experiment with ACHN, with OVCAR-3, in the experiment on MDA-MB-231, in the experiment on A498, in the experiment on MDA-N and with SK-MEL-5 was > 100 µM (inactive) each time. Also, in the experiment with SK-MEL-2, the GI50 is > 100 µM (inactive).

For `N#Cc1nc(-c2ccccn2)c(-c2ccccn2)nc1C#N`, the GI50 in the experiment with T47D was 1.69 µM (inactive); in the experiment on NCI-H522 it was 1.64 µM (inactive); in the experiment with HOP-62, 1.74 µM (inactive); with M14, 1.59 µM (inactive); with SF-268, 1.25 µM (inactive); in the experiment with NCI/ADR-RES, 1.8 µM (inactive). The GI50 in the experiment on SF-295 is 0.811 µM (active); in the experiment on BT-549, 2.36 µM (inactive); with OVCAR-8, 2.64 µM (inactive); with KM12 it was 2.52 µM (inactive); in the experiment with RXF 393, 3.58 µM (inactive); in the experiment with K562, 5.85 µM (inactive). Besides, the GI50 in the experiment with ACHN was 1.11 µM (active); in the experiment on OVCAR-3, 3.79 µM (inactive); in the experiment on MDA-MB-231, 10.7 µM (inactive); in the experiment on A498, 2.09 µM (inactive); in the experiment on MDA-N, 2.61 µM (inactive); in the experiment on SK-MEL-5 it was 1.85 µM (inactive). Besides, in the experiment with SK-MEL-2, the GI50 was 3.59 µM (inactive).

Take `Cc1noc(C)c1-n1nc2ccc3nonc3c2n1`: the GI50 in the experiment on T47D is > 67.3 µM (inactive); in the experiment with NCI-H522 it was > 78.7 µM (inactive); in the experiment with HOP-62, 22.5 µM (inactive); in the experiment on M14, > 100 µM (inactive); in the experiment on SF-268, 41 µM (inactive); in the experiment on NCI/ADR-RES, > 100 µM (inactive). The GI50 was 31.7 µM (inactive) in the experiment with SF-295; 79.3 µM (inactive) in the experiment on BT-549; 50.7 µM (inactive) with OVCAR-8; > 100 µM (inactive) in the experiment on KM12; 23 µM (inactive) in the experiment with RXF 393; > 100 µM (inactive) in the experiment on K562. Also, the GI50 is > 88.5 µM (inactive) with ACHN; > 100 µM (inactive) in the experiment with OVCAR-3; > 65.9 µM (inactive) in the experiment with MDA-MB-231; 32.7 µM (inactive) in the experiment on A498; > 100 µM (inactive) with MDA-N; > 100 µM (inactive) with SK-MEL-5. Moreover, the GI50 with SK-MEL-2 is 48.9 µM (inactive).

Take `CCOC(=O)C12OC(CCC1=O)C(C(=O)OC)=C2C(=O)OC` (configuration not stated): the GI50 in the experiment with T47D, with NCI-H522, in the experiment on HOP-62, with M14, in the experiment on SF-268 and with NCI/ADR-RES was > 10 µM (inactive) throughout. Also, the GI50 in the experiment on SF-295, in the experiment with BT-549, in the experiment with OVCAR-8, in the experiment with KM12, with RXF 393 and with K562 was > 10 µM (inactive) in each case. The GI50 with ACHN, in the experiment on OVCAR-3, in the experiment on MDA-MB-231, in the experiment on A498, in the experiment on MDA-N and with SK-MEL-5 was > 10 µM (inactive) each time. The GI50 in the experiment on SK-MEL-2 was > 10 µM (inactive).

For the origin of these results see ChEMBL document CHEMBL1201862, “PubChem BioAssay data set” (2004).
